Results: patent US20090068143A1, “ORALLY EFFECTIVE C[…]” (priority 2005, published 2009)

Experiments:
MBP induced acute EAE = experiment: MBP induced acute EAE; format: in vivo, Lewis rats; conditions: 0.5-1 mg/kg i.v., 3 days after clinical onset
Description: In the present study, EAE was induced by injection of Myelin Basic Protein (MBP), a method known to model the acute phase of MS. In this model the onset of the disease is observed by the appearance of clinical symptoms about 10 days after induction. The disease progresses and the clinical score increases and peaks around day 15 and spontaneous recovery is observed around day 23 after induction of the disease.
Female Lewis rats (average body weight 130-180 g, Harlan, Israel) were injected s.c. into the hind paws with 25 μg of purified guinea pig myelin basic protein (MBP, Sigma) emulsified in 0.1 ml of Complete Freund's Adjuvant (Difco). Animals were maintained on a 12 hours light/12 hours dark regimen, at a constant temperature of 22° C., with food and water ad libitum. Starting from day 8 following induction, animals were followed up on a daily basis. The results are recorded as clinical score; score of 0 indicates a normal animal with no clinical signs, 0.5 indicates a loss of tonicity in the tail's distal part, 1 indicates whole tail paralysis, 1.5 indicates hind legs weakness in one leg, 2 indicates hind legs weakness in two legs, 2.5 indicates fore legs paralysis in one leg, 3 indicates paralysis of all four legs, 4 indicates complete body paralysis and moribund state and 5 indicates death. The clinical score of the animals is recorded for 15 days following onset of disease until the end of the study 25 days following induction and the area under the curve (AUC) is calculated over this period of time.
Few routes of administration were assessed and the treatments were either administered intravenously (in CE vehicle) or orally by gavage (in PB vehicle) at volume dose of 5 ml/kg.
Results are expressed as mean±SEM and the differences between the treatment groups were analyzed by analysis of variance (ANOVA) followed by Tukey's post hoc test. A value of p<0.05 was considered to be statistically significant and is indicated on the figure by an asterisk over the relevant treatment group.
Compound 18A was dissolved in CREMOPHOR EL®:ethanol and further diluted in physiological buffer prior to i.v. administration. It is now disclosed that compound 18F could be dissolved directly in 80 mM phosphate buffer (pH 6.4) and administered p.o. Compound 18F was administered by oral gavage at doses of 20, 30, 40, 50 and 60 mg/kg to animals showing clinical signs of the disease. Each treatment group comprised at least 10 animals at onset of disease. At some doses, experiments were repeated up to four times.

iNOS [1] = experiment: iNOS gene expression in LPS activated RAW 264.7 macrophages (real-time RT-PCR); format: cell-based, mouse
Description: (§1) RAW 264.7 macrophages, a mouse cell line (ATCC # TIB 71), were grown in Dulbecco's modified Eagle's medium (DMEM) with 4 mM L-glutamine adjusted to contain 1.5 g/L sodium bicarbonate, 4.5 g/L glucose, and 10% heat inactivated fetal bovine serum. Cells were grown in tissue culture flasks and seeded at appropriate density into 6 wells tissue culture plates. Four million Raw cells in half a milliliter were stimulated with 1 μg/ml Lipopolysaccharide E. coli 055:B5 (DIFCO Laboratories). The mouse macrophages were pre-treated for one hour with controls or 10 μM of test compounds, and later on activated with LPS. RNA samples were extracted from the cells 3 hrs after activation and iNOS gene expression levels were analyzed by real-time RT-PCR as previously described. For western blot analysis, compounds were tested at 1, 5 and 10 μM and cells were harvested 24 hrs after LPS stimulation. Supernatant were collected and NO secretion was analyzed using ELISA. Cells were washed 3 times with cold PBS, scrapped and lyzed in 100 μl cell lysis buffer containing 20 mM HEPES, pH 7.6, 150 mM NaCl, 1.5 mM MgCl2, 0.2 mM EDTA, 1% Triton X-100, 10% glycerol, 1 mM DTT, 1 mM PMSF, 10 μg/ml aprotinin. 5 µg/ml leupeptin, 10 mM p-nitrophenyl phosphate, 100 mM β-glycerophosphate, 1 mM sodium fluoride, and 0.1 μM sodium orthovanadate. Cells were lyzed on ice for 10 minutes before further processing.
The results of this experiment are expressed as fold activation of iNOS over non-activated macrophages, after normalization to cyclophilin A expression. Compound 18A inhibits 63% of iNOS gene expression, and compounds 18B, 18E and 18F inhibit 55%, 25% and 100% respectively. […] This surprising observation strengthen the fact that compounds of the invention, though chemically related, have distinct and unexpected properties.

RAW 264.7 macrophages = experiment: NO secretion of LPS activated RAW 264.7 macrophages (ELISA); format: cell-based; conditions: Mus musculus, RAW264.7, 24 hrs after LPS stimulation
Description: as §1, with “processing. […]” for “processing.”

iNOS [2] = experiment: iNOS protein expression in activated macrophages (western blot); format: cell-based, mouse; conditions: 1, 5 and 10 μM, 24 hrs after LPS stimulation
Description: as §1, with “Cells were washed 3 times with cold PBS, scrapped and lyzed in 100 μl cell lysis buffer containing 20 mM HEPES, pH 7.6, 150 mM NaCl, 1.5 mM MgCl2, 0.2 mM EDTA, 1% Triton X-100, 10% glycerol, 1 mM DTT, 1 mM PMSF, 10 μg/ml aprotinin. 5 µg/ml leupeptin, 10 mM p-nitrophenyl phosphate, 100 mM β-glycerophosphate, 1 mM sodium fluoride, and 0.1 μM sodium orthovanadate. Cells were lyzed on ice for 10 minutes before further processing.” left out
To assess correlation between gene expression and protein expression, protein extracts were prepared from the various treated activated macrophages. […] Primary antibodies against cyclophilin A were used as control (Upstate, Cat# 07-313), and the amount of iNOS was assessed using NOS2 (C11) Santa Cruz antibodies (Cat# SC-7271) were hybridized for 2 hours at room temperature. […]

visceral pain = experiment: Visceral pain, acetic acid induced writhing responses; format: in vivo, ICR mice
Description: For the i.v. part of the study, compounds were dissolved in CREMOPHOR®:Ethanol and diluted 1:20 in saline prior to injection, fifteen minutes before pain induction. When compounds were delivered per os, they were dissolved in phosphate buffer or in CREMOPHOR®:Ethanol as previously described and administered 1 hour before pain induction. Each treatment group, except for controls comprising at least 30 animals, was composed of at least 6 animals. Fifteen or sixty minutes later, depending on the route selected for drug administration, the mice were injected i.p. with 10 ml/kg of 0.6% acetic acid and the number of visceral pain related behaviors (writhing, stretching, contractions of the abdomen accompanied by an elongation of the body and extension of the hind limbs) is counted over a period of 5 minutes, starting 5 minutes after the acetic acid administration. These visceral pain related behaviors are globally defined as writhing responses (WR). The results are expressed as mean number of writhing responses±SEM. Data were analyzed using analysis of variance (ANOVA) followed by post-hoc Fisher test. A value of p<0.05 was considered to be statistically significant and is indicated on the figure by an asterisk over the relevant treatment group.
The following results were obtained at 2 mg/kg i.v. of test compounds or, in the case of the study performed with cannabinoid receptor antagonists, 1 mg/kg test compound or antagonist alone and 1 mg/kg test compound+1 mg/kg antagonist. In a separate study, it was shown that analgesic activity of compounds of the invention was dose related.

CB2 receptor = CB2 receptor (Homo sapiens, UniProt P34972); experiment: CB2 binding assay
CB1 receptor = CB1 receptor (Homo sapiens, UniProt P21554); experiment: CB1 binding assay
[3] = oral administration, on an average; cited from earlier work
[4] = in vivo; cited from earlier work

Sequence of CB2 receptor (P34972 whole entry): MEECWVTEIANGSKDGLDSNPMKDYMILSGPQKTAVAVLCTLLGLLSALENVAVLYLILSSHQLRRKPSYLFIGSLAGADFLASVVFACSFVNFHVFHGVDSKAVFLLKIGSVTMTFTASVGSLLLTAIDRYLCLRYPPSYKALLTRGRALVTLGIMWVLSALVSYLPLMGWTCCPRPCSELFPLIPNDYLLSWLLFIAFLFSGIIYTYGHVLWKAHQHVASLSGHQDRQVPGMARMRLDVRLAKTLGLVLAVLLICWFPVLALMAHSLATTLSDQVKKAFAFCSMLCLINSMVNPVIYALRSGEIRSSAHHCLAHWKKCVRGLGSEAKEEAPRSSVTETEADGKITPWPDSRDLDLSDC
Sequence of CB1 receptor (P21554 whole entry): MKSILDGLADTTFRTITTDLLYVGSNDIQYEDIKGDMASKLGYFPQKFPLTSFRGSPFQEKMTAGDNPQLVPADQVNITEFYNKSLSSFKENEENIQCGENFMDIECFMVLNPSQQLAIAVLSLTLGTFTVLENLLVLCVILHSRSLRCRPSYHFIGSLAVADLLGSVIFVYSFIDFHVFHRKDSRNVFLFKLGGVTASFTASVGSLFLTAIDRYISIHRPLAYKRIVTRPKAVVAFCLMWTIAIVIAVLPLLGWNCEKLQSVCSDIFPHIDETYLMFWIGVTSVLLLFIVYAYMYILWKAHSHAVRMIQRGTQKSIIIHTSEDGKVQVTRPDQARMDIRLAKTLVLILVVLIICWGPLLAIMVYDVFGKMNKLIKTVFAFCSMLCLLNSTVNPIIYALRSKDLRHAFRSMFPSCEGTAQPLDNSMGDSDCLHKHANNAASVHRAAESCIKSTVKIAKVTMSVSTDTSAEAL

CCCCCCC(C)(C)c1cc(O)c([C@H]2CC(=O)[C@H]3C[C@@H]2C3(C)C)c(O)c1 [Compound 18A, (−)-4-[4-(1,1-Dimethylheptyl)-2,6-dihydroxy-phenyl]-6,6-dimethyl-bicyclo[3.1.1]heptan-2-one]
reduction in AUC of clinical score (MBP induced acute EAE): 30-35%
effect of CB1 or CB2 antagonists on iNOS inhibiting activity (iNOS [1]; 5 μM of SR-141716 and SR-144528): reversed by co-administration of either CB1 or CB2 antagonists
inhibition of iNOS gene expression (iNOS [1]; 10 μM, 1 h pre-treatment, 3 hrs after LPS activation): 63%
inhibition at 10 µM (RAW 264.7 macrophages): 63%
iNOS protein band (western blot) (iNOS [2]): clear dose dependent disappearance of iNOS protein band
inhibition of the number of writhing responses (visceral pain; 1 mg/kg i.v.): 90%
effect of addition of CB1 antagonist on analgesic activity (visceral pain; 1 mg/kg i.v. + 1 mg/kg SR141716A): totally blocked
effect of addition of CB2 antagonist on analgesic activity (visceral pain; 1 mg/kg i.v. + 1 mg/kg SR144528): did not affect
inhibition of writhing responses as compared to vehicle treated group (visceral pain; 2 mg/kg i.v.): total inhibition
inhibition of writhing responses (visceral pain; 10 mg/kg p.o. in CREMOPHOR®:Ethanol): 70%
IC50 (CB2 receptor): 1 nM
IC50 (CB1 receptor): 27.6 nM

CCCCCc1cc(O)c2c(c1)OC(C)(C)[C@@H]1CCC(C)=C[C@@H]21 [Δ^9-THC, Δ^9-tetrahydrocannabinol]
absolute bioavailability [3]: 13%

B1: IFN-β-1b: beta interferon product to which patients develop NAbs (protein, UniProt P01574 22-187, looked up, variant C17S)
Interferon beta: MSYNLLGFLQRSSNFQSQKLLWQLNGRLEYCLKDRMNFDIPEEIKQLQQFQKEDAALTIYEMLQNIFAIFRQDSSSTGWNETIVENLLANVYHQINHLKTVLEEKLEKEDFTRGKLMSSLHLKRYYGRILHYLKAKEYSHCAWTIVRVEILRNFYFINRLTGYLRN
patients developing neutralizing antibodies (NAbs) [4]: Twenty-eight to forty-seven
